Patent US20250129103A1, “METHODS FOR TREATMENT OF CANCER” (Frontier Medicines Corporation, priority 2022, published 2025)
Converted amounts (≈) assume the structure as drawn.

What was measured:
[1] = biological target: KRAS G12C (GMPPNP-loaded) and cRAF (Ras-binding domain) interaction (Homo sapiens (Human), UniProt P01116, C118S/C51S/C80L/G12C); assay: Inhibition of KRAS G12C and cRAF binding (AlphaScreen); conditions: KRAS G12C loaded with GMPPNP, cRaf RBD, 2 hours preincubation; read-out: Raf-1 RBD K-Ras IC50
Sequence of KRAS G12C (GMPPNP-loaded) and cRAF (Ras-binding domain) interaction (P01116 other isoform, or with tags, fused parts or gaps G12C/C51S/C80L/C118S): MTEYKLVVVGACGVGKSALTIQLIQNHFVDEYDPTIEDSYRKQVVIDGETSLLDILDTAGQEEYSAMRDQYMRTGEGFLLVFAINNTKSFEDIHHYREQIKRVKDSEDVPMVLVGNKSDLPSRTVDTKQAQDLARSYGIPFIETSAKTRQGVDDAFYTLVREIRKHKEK
Summary of the method: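 GMPPNP-loaded KRAS G12C in 25 mM Hepes pH 7.4, 150 mM NaCl, 5 mM MgCl2, 0.01% Triton X-100, 10 μM GMPPNP, 2% DMSO, preincubated with compound 2 h at room temperature. cRAF RBD plus AlphaScreen beads then added for 60-90 min; signal read at 570 nm.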

[2] = Determination of logD (1-octanol / phosphate buffer pH 7.4); type: physicochemical; conditions: for logD: 1-octanol/phosphate buffer, pH 7.4, pH 7.4, 1-octanol/phosphate buffer, read-out: Log D, pH 7.4
Experimental: Preparation of phosphate buffer saturated with 1-octanol: 10 mL of 100 mM phosphate buffer (pH 7.4) was added to 100 mL of 1-octanol. The mixture was shaken vigorously and left to stand at room temperature overnight.
Preparation of 1-octanol saturated with phosphate buffer: 10 mL of 1-octanol was added to 100 mL of 100 mM phosphate buffer (pH 7.4). The mixture was shaken vigorously and left to stand at room temperature overnight.
149 μL of phosphate buffer saturated with 1-octanol was added into 1st sample tube. 149 μL of 1-octanol saturated with phosphate buffer was added into the 2nd sample tube. The sample tubes were mixed vigorously and shaken for 1 hour at a speed of 800 rpm at room temperature. The sample tubes were subjected to centrifugation at 4000 rpm for 5 minutes at room temperature. Samples of the supernatant were taken from both tubes, diluted with an appropriate LCMS buffer, and analyzed on an LCMS instrument. LogD was calculated according to the following equation.

[3] = Determination of kinetic solubility (pH 7.4); type: physicochemical; conditions: for solubility kinetic at 2 h: phosphate buffer, pH 7.4, aqueous buffer, kinetic from dmso stock, 50 mM phosphate buffer pH 7.4, read-out: Ksol, pH 7.4
Experimental: 490 μL of a 50 mM phosphate buffer (pH 7.4) was added to the sample solution. The mixture was vortexed for at least 2 minutes. The vial was shaken on a Barnstead shaker at 800 rpm at room temperature for 2 hours. The vial was centrifuged at 4000 rpm for 20 minutes. The Mini-UniPrep vial was compressed to prepare a filtrate, which was injected into an HPLC-UV and LC-MS/MS system. Kinetic solubility was calculated by referencing sample peak areas to a standard calibration curve.

Compound	IC50 [1] [nM]	logD [2]	solubility kinetic at 2 h [3] [µg/mL]	Log D, pH 7.4 ([2]; pH 7.4, 1-octanol/phosphate buffer)	Ksol, pH 7.4 (ug/mL) ([3]; 50 mM phosphate buffer pH 7.4)
N#CC[C@H]1CN(c2nc(OC[C@@]34CCCN3C[C@H](F)C4)nc3c(F)c(-c4cccc5cccc(Cl)c45)ncc23)CCN1C(=O)/C=C/CN1CCCOCC1 [Compound 109, 2-((S)-1-((E)-4-(1,4-oxazepan-4-yl)but-2-enoyl)-4-(7-(8-chloronaphthalen-1-yl)-8-fluoro-2-(((2R,7aS)-2-fluorohexahydro-1H-pyrrolizin-7a-yl)methoxy)pyrido[4,3-d]pyrimidin-4-yl)piperazin-2-yl)acetonitrile]	< 10	2.6	127 (≈ 167 µM)		
N#CC[C@H]1CN(c2nc(OCC34CCCN3CCC4)nc3c2CCN(c2cccc4cccc(Cl)c24)C3)CCN1C(=O)/C=C/c1ncccn1 [Compound 35]	100 to 500	2.77	111 (≈ 161 µM)		
N#CC[C@H]1CN(c2nc(OCC34CCCN3CCC4)nc3c2CCN(c2cccc4cccc(Cl)c24)C3)CCN1C(=O)/C=C/CN1CC2COCC(C1)O2 [Compound 172]	< 10	2.1	119 (≈ 158 µM)		
N#CC[C@H]1CN(c2nc(OC[C@@]34CCCN3C[C@H](F)C4)nc3c(F)c(-c4cccc5cccc(F)c45)ncc23)CCN1C(=O)/C=C/CN1CC2CCC(C1)O2 [Compound 245]	10 to 100	2.91	74.4 (≈ 98.8 µM)		
C#Cc1c(F)ccc2cccc(-c3ncc4c(N5CCN(C(=O)/C=C/CN6CC7CCC(C6)O7)[C@@H](CC#N)C5)nc(OC[C@@]56CCCN5C[C@H](F)C6)nc4c3F)c12 [Compound 285]	< 10	3.54	70.4 (≈ 90.6 µM)		
N#CC[C@H]1CN(c2nc(OCC34CCCN3CCC4)nc3c2CCN(c2cccc4cccc(Cl)c24)C3)CCN1C(=O)/C=C/CN1CCN(C2COC2)CC1 [Compound 317]	< 10	2.01	114 (≈ 148 µM)		
N#CC[C@H]1CN(c2nc(OC[C@@]34CCCN3C[C@H](F)C4)nc3c(F)c(-c4cccc5cccc(F)c45)ncc23)CCN1C(=O)/C=C/CN1CCSCC1 [Compound 232]	< 10	3.68	34.8 (≈ 46.9 µM)		
N#CC[C@H]1CN(c2nc(OCC34CCCN3CCC4)nc3c2CCN(c2ccccc2C(F)F)C3)CCN1C(=O)/C=C/CN1CCOCC1 [Compound 61]	> 500	1.22	88.7 (≈ 131 µM)		
Cc1nccc(/C=C/C(=O)N2CCN(c3nc(OC[C@@]45CCCN4C[C@H](F)C5)nc4c(F)c(-c5cccc6ccc(F)c(C)c56)ncc34)C[C@@H]2CC#N)n1 [Compound 254]	< 10	3.79	4.99 (≈ 6.8 µM)		
Cc1cc(/C=C/C(=O)N2CCN(c3nc(OC[C@@]45CCCN4C[C@H](F)C5)nc4c(F)c(-c5cccc6ccc(F)c(C)c56)ncc34)C[C@@H]2CC#N)nc(C)n1 [Compound 105, 2-((S)-1-((E)-3-(2,6-dimethylpyrimidin-4-yl)acryloyl)-4-(8-fluoro-7-(7-fluoro-8-methylnaphthalen-1-yl)-2-(((2R,7aS)-2-fluorotetrahydro-1H-pyrrolizin-7a(5H)-yl)methoxy)pyrido[4,3-d]pyrimidin-4-yl)piperazin-2-yl)acetonitrile]	< 10	3.99	2.36 (≈ 3.16 µM)		
Cc1nccc(/C=C/C(=O)N2CCN(c3nc(OC[C@@]45CCCN4C[C@H](F)C5)nc4c(F)c(-c5nc(N)cc6cccc(F)c56)ncc34)C[C@@H]2CC#N)n1 [Compound 146]	< 10	2.14	78.1 (≈ 106 µM)		
CN(C)C/C=C/C(=O)N1CCN(c2nc(OC[C@@]34CCCN3C[C@H](F)C4)nc3c(F)c(-c4cccc(Cl)c4C4CC4)ncc23)C[C@@H]1CC#N [Compound 115, 2-((S)-4-(7-(3-chloro-2-cyclopropylphenyl)-8-fluoro-2-(((2R,7aS)-2-fluorotetrahydro-1H-pyrrolizin-7a(5H)-yl)methoxy)pyrido[4,3-d]pyrimidin-4-yl)-1-((E)-4-(dimethylamino)but-2-enoyl)piperazin-2-yl)acetonitrile]	10 to 100	2.54	114 (≈ 165 µM)		
N#CC[C@H]1CN(c2nc(OCC34CCCN3CCC4)nc3c2CCN(c2cccc4cccc(Cl)c24)C3)CCN1C(=O)/C=C/CN1CC2C(C1)C2(F)F (stereo partly drawn) [Compound 193]	< 10	3.13	97.3 (≈ 131 µM)		
N#CC[C@H]1CN(c2nc(OC[C@@]34CCCN3C[C@H](F)C4)nc3c(F)c(-c4cccc5cccc(Cl)c45)ncc23)CCN1C(=O)/C=C/CN1CCOC2CC21 (stereo partly drawn) [Compound 274]	10 to 100	3.14	76.2 (≈ 101 µM)		
N#CC[C@H]1CN(c2nc(OC[C@@]34CCCN3C[C@H](F)C4)nc3c(F)c(-c4cccc5ccc(F)c(F)c45)ncc23)CCN1C(=O)/C=C/CN1CC[C@@H]2COC[C@H]21 [Compound 299]	< 10	2.95	118 (≈ 153 µM)		
N#CC[C@H]1CN(c2nc(OC[C@@]34CCCN3C[C@H](F)C4)nc3c(F)c(-c4cccc(Cl)c4C4CC4)ncc23)CCN1C(=O)/C=C/CN1CC2CCC(C1)O2 [Compound 261]	10 to 100	3.14	56.7 (≈ 74.7 µM)		
Cc1nsc(/C=C/C(=O)N2CCN(c3nc(OC[C@@]45CCCN4C[C@H](F)C5)nc4c3C[C@H](C)[C@@H](c3nc(N)cc(C)c3C(F)(F)F)C4)C[C@@H]2CC#N)n1 [Compound 203]	10 to 100	4.59	0.01 (≈ 0.0132 µM)		
N#CC[C@H]1CN(c2nc(OCC34CCCN3CCC4)nc3c(F)c(-c4cccc5ccc(F)c(Cl)c45)ncc23)CCN1C(=O)/C=C/CN1C[C@H]2C[C@@H]1CO2 [Compound 183]	< 10	1.48	110 (≈ 146 µM)		
N#CC[C@H]1CN(c2nc(OC[C@@]34CCCN3C[C@H](F)C4)nc3c2CCN(c2cccc4cccc(Cl)c24)C3)CCN1C(=O)/C=C/c1nc(C2COC2)no1 [Example 7, 2-((S)-4-(7-(8-chloronaphthalen-1-yl)-2-(((2R,7aS)-2-fluorohexahydro-1H-pyrrolizin-7a-yl)methoxy)-5,6,7,8-tetrahydropyrido[3,4-d]pyrimidin-4-yl)-1-((E)-3-(3-(oxetan-3-yl)-1,2,4-oxadiazol-5-yl)acryloyl)piperazin-2-yl)acetonitrile]	< 10	2.69	0.01 (≈ 0.0133 µM)		
N#CC[C@H]1CN(c2nc(OC[C@@]34CCCN3C[C@H](F)C4)nc3c(F)c(-c4cccc5cccc(Cl)c45)ncc23)CCN1C(=O)/C=C/c1nc([C@H]2C[C@@H]2F)no1 [Compound 15, 2-((S)-4-(7-(8-chloronaphthalen-1-yl)-8-fluoro-2-(((2R,7aS)-2-fluorotetrahydro-1H-pyrrolizin-7a(5H)-yl)methoxy)pyrido[4,3-d]pyrimidin-4-yl)-1-((E)-3-(3-((1R,2S)-2-fluorocyclopropyl)-1,2,4-oxadiazol-5-yl)acryloyl)piperazin-2-yl)acetonitrile]	100 to 500	4.24	0.01 (≈ 0.013 µM)		
Cc1noc(/C=C/C(=O)N2CCN(c3nc(OCC45CCCN4CCC5)nc4c3CCN(c3cccc5cccc(Cl)c35)C4)C[C@@H]2CC#N)n1 [Compound 28]	100 to 500			3.22	43.66
Cc1cc(N)nc(-c2ncc3c(N4CCN(C(=O)/C=C/c5nc(C(C)C)no5)[C@@H](CC#N)C4)nc(OC[C@@]45CCCN4C[C@H](F)C5)nc3c2F)c1C(F)(F)F [Compound 135]	10 to 100	3.42	94.6 (≈ 123 µM)		
N#CC[C@H]1CN(c2nc(OC[C@@]34CCCN3C[C@H](F)C4)nc3c(F)c(-c4cccc5cccc(F)c45)ncc23)CCN1C(=O)/C=C/CN1CCOCC1 [Compound 233]	10 to 100	2.91	102 (≈ 141 µM)		
